The text below walks through data of patent publication US20080262054A1, “Pharmaceutical Composition Containing Thiazolidinedione Compound” (priority 2005, published 2008).

The structures appear in SMILES notation. Where a name gives a salt, the structure may show the parent alone.

Data set [1] in a line: Dissolution Rate Test 1 of Compound A (Test Example 1). The class given is physicochemical. To be noted: JP first fluid, 37° C. Here is the method:
About 40 mg of Compound A or a monohydrate of Compound A and a formulation excipient [one excipient is selected from the following excipients: 377.6 mg of lactose (Borculo Domo Ingredients), 78.0 mg of croscarmellose sodium (Ac-Di-Sol, FMC International), 15.6 mg of hydroxypropyl cellulose (HPC-L, Nippon Soda Co., Ltd.), 5.2 mg of magnesium stearate (NOF Corp.) and 0.112 mg of yellow ferric oxide (Kishi Kasei Co., Ltd.)] were added to 200 ml of Japanese Pharmacopoeia (JP) first fluid (7.0 ml of hydrochloric acid and water added to 2.0 g of sodium chloride followed by dissolving and bringing to a volume of 100 ml, normally used as a test liquid that imitates disintegration and elution of chemicals in the stomach) followed by stirring with a stirrer at 37° C. in a 300 ml conical beaker. 10 ml-samples were collected after 30 minutes, 1 hour, 3 hours and 6 hours followed by filtration using Acrodisk LC13 (PVDF, Gelman Science, Inc.). After discarding the first 3 ml, the next 7 ml were removed into a test tube. 5 ml of the sample in the test tube was taken with a whole pipette and transferred to a test tube containing 2 ml of methanol followed by mixing.
(§1) Quantification was carried out using HPLC, and solubility was determined from a calibration curve generated according to the method described below.
The calibration curve was generated by preparing methanol standard solutions of Compound A at concentrations of 400, 100 and 20 μg/ml, followed by the addition of 5 ml of JP first fluid to 2 ml of each standard solution, mixing and quantifying by HPLC.
Analytical column: L-column ODS (4.6 mm ID×15 cm, Chemicals Evaluation and Research Institute, Japan)
Mobile phase: 0.01 mol/1 mixture of acetate buffer (pH 5.0) and acetonitrile (13:7)
Column temperature: 40° C.
Detector: Ultraviolet absorption spectrophotometer (measuring wavelength: 290 nm)

Data set [2] in a line: Dissolution Rate Test 2 of Compound A (Test Example 2). The class given is physicochemical. To be noted: JP first fluid, 37° C., subsequently to 1 hour (3 hours, 6 hours); FIG. 2. Here is the method:
Dissolution Rate Test 2 of 5-{4-[(6-methoxy-1-methyl-1H-benzimidazol-2-yl)methoxy]benzyl}thiazolidine-2,4-dione hydrochloride (Compound A) About 40 mg of Compound A or a monohydrate of Compound A and a formulation excipient [one excipient is selected from the following excipients: 23.9 mg of OPADRY II, 17.2 mg of polyvinyl alcohol (GOHSENOL GL-05, Nippon Synthetic Chemical Industry Co., Ltd.), and 23.9 mg of OPAGLOS 2] were added to 200 ml of Japanese Pharmacopoeia (JP) first fluid (7.0 ml of hydrochloric acid and water added to 2.0 g of sodium chloride followed by dissolving and bringing to a volume of 100 ml, normally used as a test liquid that imitates disintegration and elution of chemicals in the stomach) followed by stirring with a stirrer at 37° C. in a 300 ml conical beaker. 10 ml-samples were collected after 30 minutes, 1 hour, 3 hours and 6 hours followed by filtration using Acrodisk LC13 (PVDF, Gelman Science, Inc.). […]
as §1
The calibration curve was generated by preparing methanol standard solutions of Compound A at concentrations of 400, 100 and 20 μg/ml, followed by the addition of 5 ml of JP first fluid to 2 ml of each standard solution, mixing and quantifying by HPLC. […]

[3] abbreviates: stirring, samples after 30 minutes, 1 hour, 3 hours and 6 hours, HPLC, FIG. 1.

In the case of `COc1ccc2nc(COc3ccc(CC4SC(=O)NC4=O)cc3)n(C)c2c1` (stereo not shown) [Compound A, 5-{4-[(6-methoxy-1-methyl-1H-benzimidazol-2-yl)methoxy]benzyl}thiazolidine-2,4-dione hydrochloride], the solubility result in data set [1] (setting [3]) is “decrease over time”; in data set [1] (subsequently to 1 hour (3 hours, 6 hours)), “decreased rapidly”; in data set [2], “decreased rapidly”.

Regarding `COc1ccc2nc(COc3ccc(CC4SC(=O)NC4=O)cc3)n(C)c2c1.Cl.O` (stereo not shown) [monohydrate, 5-{4-[(6-methoxy-1-methyl-1H-benzimidazol-2-yl)methoxy]benzyl}thiazolidine-2,4-dione hydrochloride (Compound A) monohydrate], in data set [1] (setting [3]), the solubility entry is recorded as “extremely low”.
